What all share (assay): DTP human tumour cell line panel, 48 h
Experiment [1] relates to HCT-116.
Experiment [2] has as its system ACHN.
The test system of experiment [3] is RPMI-8226.
The test system of experiment [4] is IGROV-1.
For experiment [5], the system named is NCI-H460.
The subject of experiment [6] is LOX IMVI.
In experiment [7] the test system is UACC-257.
For experiment [8], the system named is SK-MEL-2.
The subject of experiment [9] is T47D.
Experiment [10] deals with NCI/ADR-RES.
The subject of experiment [11] is OVCAR-3.
In experiment [12] the test system is NCI-H23.
The subject of experiment [13] is PC-3.
The test system of experiment [14] is M14.
The test system of experiment [15] is MDA-MB-231.
For experiment [16], the system named is SF-295.
Experiment [17] deals with HCC 2998.
In experiment [18] the test system is Hs-578T.
Experiment [19] deals with Malme-3M.
For experiment [20], the system named is CCRF-CEM.

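Dose response: 5 concentrations. Exposure: 48 h. Format: 96-well plates. Endpoint: linear interpolation; highest concentration if not reached. GI50 is the concentration that inhibits growth by half.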 Calls of active or inactive are those of the source. Cut-off read from the data, not from the text of the source: active = GI50 up to about 1.1 µM and inactive = higher. Bounds are passed on as bounds.

Regarding `NC(=S)N/N=C/c1ncccc1N` [TRIAPINE], the GI50 (usually the concentration that inhibits growth by half) in experiment [1] was 0.986 µM (active); in experiment [2], 0.282 µM (active); in experiment [3] it was 0.792 µM (active); in [4], > 10 µM (inactive); in experiment [5], 1.68 µM (inactive); in experiment [6] it was 0.679 µM (active). The GI50 was > 6.65 µM (inactive) in experiment [7]; > 10 µM (inactive) in experiment [8]; 4.39 µM (inactive) in [9]; 2.04 µM (inactive) in [10]; 2.25 µM (inactive) in [11]; 0.332 µM (active) in experiment [12]. The GI50 in experiment [13] was 1.57 µM (inactive); in [14] it was 0.583 µM (active); in experiment [15], 5.28 µM (inactive); in experiment [16], 1.21 µM (inactive); in [17], 1.62 µM (inactive); in experiment [18], > 10 µM (inactive). Also, the GI50 in experiment [19] was 1.87 µM (inactive); in experiment [20] it was 0.466 µM (active).
Consider `COc1cccc(N2C(=O)C3c4[nH]c5ccccc5c4C4CCCC4C3C2=O)c1` (stereo not given), for which the GI50 in experiment [1] was 2.87 µM (inactive); in [2], 5.93 µM (inactive); in experiment [3] it was > 10 µM (inactive); in [4] it was 6.71 µM (inactive); in experiment [5], 4.26 µM (inactive); in experiment [6] it was 5.38 µM (inactive). In addition, the GI50 is > 10 µM (inactive) in experiment [7]; > 10 µM (inactive) in experiment [8]; > 10 µM (inactive) in [9]; 3.8 µM (inactive) in [10]; 2.36 µM (inactive) in [11]; > 10 µM (inactive) in experiment [12]. Moreover, the GI50 in experiment [13] was 9.4 µM (inactive); in experiment [14], 3.06 µM (inactive); in experiment [15], 2.25 µM (inactive); in experiment [16], > 10 µM (inactive); in experiment [17] it was > 10 µM (inactive); in experiment [18], 3.61 µM (inactive). Also, the GI50 is 2.78 µM (inactive) in experiment [19] and > 10 µM (inactive) in experiment [20].
With `CCOP(=O)(OCC)C(c1ccccc1)N(C(=O)NC(F)(F)F)c1ccc(C)cc1` (stereo not given), the GI50 in experiment [1], in [2], in [3], in experiment [4], in experiment [5] and in [6] was > 100 µM (inactive) throughout. Besides, the GI50 was > 100 µM (inactive) in [7]; > 100 µM (inactive) in experiment [8]; 83.4 µM (inactive) in [9]; > 100 µM (inactive) in experiment [10]; > 100 µM (inactive) in experiment [11]; > 100 µM (inactive) in experiment [12]. In addition, the GI50 is > 100 µM (inactive) in [13]; > 100 µM (inactive) in experiment [14]; > 100 µM (inactive) in experiment [15]; > 100 µM (inactive) in experiment [16]; > 100 µM (inactive) in [17]; 69.5 µM (inactive) in experiment [18]. Besides, the GI50 in experiment [19] and in experiment [20] was > 100 µM (inactive) each time.
Regarding `CC1=Nc2c(O)nc(S)nc2NC(c2c(Cl)cccc2Cl)C1` (stereo not given), the GI50 in [1] is 0.76 µM (active); in experiment [2], 4.86 µM (inactive); in [3] it was 0.583 µM (active); in experiment [4], 2.36 µM (inactive); in experiment [5], 1.92 µM (inactive); in [6] it was 0.766 µM (active). Further, the GI50 in experiment [7] was 3.07 µM (inactive); in experiment [8], 18 µM (inactive); in [9], 1.48 µM (inactive); in experiment [10], 0.193 µM (active); in experiment [11] it was 1.58 µM (inactive); in experiment [12], 2.65 µM (inactive). Besides, the GI50 was 1.17 µM (inactive) in [13]; 2.32 µM (inactive) in experiment [14]; 0.519 µM (active) in [15]; 1.61 µM (inactive) in experiment [16]; 10.9 µM (inactive) in experiment [17]; 0.589 µM (active) in experiment [18]. Also, the GI50 in [19] is 6.11 µM (inactive); in experiment [20], 0.275 µM (active).

The values are drawn from ChEMBL document CHEMBL1201862, “PubChem BioAssay data set” (2004).
